From patent publication US20220073638A1, “METHODS AND PHARMACEUTICAL COMPOSITION FOR THE TREATMENT OF CANCERS RESISTANT TO IMMUNE CHECKPOINT THERAPY” (INSERM (INSTITUT NATIONAL DE LA SANTÉ ET DE LA RECHERCHE …, priority 2018, published 2022) come the findings set out here.

This data set has as its system CD163+ TAMs. The format is in vivo, mouse. Here is the method:
To deplete CD163^+ TAM we generated knock-in mice expressing iCre recombinase from a Cd163-IRES-iCre transcript (CD163-iCre) and crossed them to Csflr-LSL-DTR mice that after cre-mediated deletion of LSL, have DTR expression under the control of the Csflr promotor. A single injection of 4 ng/kg diphteria toxin (DT) specifically depleted close to 50% of CD163+ TAMs after 24 hrs (data not shown). No effect, was observed on the remaining myeloid compartment except for a small increase in recruited monocytes (data not shown). Next, we attempted to achieve sustained depletion of CD163+ TAMs by repeated DT injections.

For the substance diphteria toxin [DT], where the note is “repeated DT injections”, the “side effects of sustained depletion of CD163+ macrophages” value is reported as “severe side-effect”. For the setting “repeated DT injections, CD163-iCre+/-, Csf1r-LSL-DTR+/- mice compared to Csf1r-LSL-DTR wildtype mice”, the tumor growth result is recorded as “significantly reduced tumor growth”. The “depletion of CD163+ TAMs” value (single injection of 4 ng/kg DT, after 24 hrs) was around 50%. Further, under “single injection of 4 ng/kg DT, except for a small increase in recruited monocytes”, the “effect on the remaining myeloid compartment” value is on record as “No effect”.
